Assay: Antiviral activity against HIV protease in absence of human serum

With `CCCCN1C(=O)N(Cc2cccc(C(=N)NO)c2)[C@H](Cc2ccccc2)[C@H](O)CN1S(=O)(=O)c1cccc(OC)c1` the EC50 was 30 nM.

From BindingDB's records for doi:10.1016/j.bmcl.2004.05.036 (Abbott Laboratories, 2004)
